From patent US7927821B2, “Methods of screening for compounds which bind G protein-coupled receptors” (Takeda Pharmaceutical Company Limited, priority 2004, dated 2011)

Target: TGR25-GFP fusion protein (UniProt P42212+Q86Y34, F64L/I167T/S65C)
Experiment: Internalization of the TGR25-GFP fusion protein expressed on CHO cells (confocal microscope)
Format: cell-based, human
Conditions: 100 μM AM251, 45 minutes, 37° C.

Cc1c(C(=O)NN2CCCCC2)nn(-c2ccc(Cl)cc2Cl)c1-c1ccc(I)cc1 [AM251, 1-(2,4-dichlorophenyl)-5-(4-iodophenyl)-4-methyl-N-piperidin-1-yl-1H-pyrazole-3-carboxamide]
localization of the TGR25-GFP fusion protein (internalization): moved in part to the cytoplasm
